Measurements published in patent US9790178B2, “Pyrrolidinyl urea, thiourea, guanidine and cyanoguanidine compounds as TrkA kinase inhibitors” (Array BioPharma Inc., priority 2012, dated 2017).

Target: T1, His-tagged recombinant human TrkA (Homo sapiens, UniProt P04629)
T1 construct: 6HIS tagged cytoplasmic domain from Invitrogen, Catalog No. PV3144; purchased Invitrogen PV3144
Test: TrkA LanthaScreen Eu Kinase Binding Assay
Conditions: averaged IC50 values; read-out: TrkA enzyme IC50
Experimental: TrkA binding activity was determined in a TrkA LanthaScreen™ Eu Kinase Binding Assay. 5 nM His-tagged recombinant human TrkA (6HIS tagged cytoplasmic domain from Invitrogen, Catalog No. PV3144) was incubated with 4 nM Alexa-Fluor® Tracer 236 (Invitrogen Cat. No. PV5592), 2 nM biotinylated anti-His (Invitrogen Cat. No. PV6090), and 2 nM europium-labeled Streptavidin (Invitrogen Cat. No. PV5899), in buffer (25 mM MOPS, pH 7.5, 5 mM MgCl2, 0.005% Triton X-100). Three fold serial dilutions of compounds of the invention in DMSO were added to a final percentage of 2% DMSO. After 60-minute incubation at 22° C., the reaction was measured using the EnVision mutlimode plate reader (PerkinElmer) via TR-FRET dual wavelength detection at […]. The percent of control was calculated using a ratiometric emission factor. The IC50 values were determined by fitting a four parameter model to the percent of control data.
Table A provides averaged IC50 values for compounds of the invention when tested in the assay of Example A, where A represents an averaged IC50 value <100 nM; and B represents an averaged IC50 value from 100 to 1,000 nM.

T1 sequence (P04629 440-796 limits assumed): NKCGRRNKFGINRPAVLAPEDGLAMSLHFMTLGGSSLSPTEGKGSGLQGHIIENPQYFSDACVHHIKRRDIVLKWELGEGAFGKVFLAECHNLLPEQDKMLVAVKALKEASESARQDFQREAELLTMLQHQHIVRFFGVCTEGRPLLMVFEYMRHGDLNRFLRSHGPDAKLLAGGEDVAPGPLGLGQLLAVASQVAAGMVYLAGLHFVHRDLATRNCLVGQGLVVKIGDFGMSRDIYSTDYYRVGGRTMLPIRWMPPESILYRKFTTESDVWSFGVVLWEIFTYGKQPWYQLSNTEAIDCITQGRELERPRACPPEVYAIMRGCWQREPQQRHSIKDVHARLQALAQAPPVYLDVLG

Structure (SMILES)	IC50 [nM]
COCCN1C[C@@H](NC(=O)Nc2c(-c3ccccc3)nc3c(Cl)cccn23)[C@H](c2ccccc2)C1 (relative stereo) [Example 14, 1-(8-chloro-2-phenylimidazo[1,2-a]pyridin-3-yl)-3-((trans)-1-(2-methoxyethyl)-4-phenylpyrrolidin-3-yl)urea]	< 100
COCCN1C[C@@H](NC(=O)Nc2c(-c3ccccc3)nc3c(=O)n(C)ccn23)[C@H](c2ccc(F)c(F)c2)C1 [Example 24, 1-((3S,4R)-4-(3,4-difluorophenyl)-1-(2-methoxyethyl)pyrrolidin-3-yl)-3-(7-methyl-8-oxo-2-phenyl-7,8-dihydroimidazo[1,2-a]pyrazin-3-yl)urea]	< 100
COCCN1C[C@@H](NC(=O)Nc2c(-c3ccccc3)nc3c(F)cccn23)[C@H](c2ccccc2)C1 [Example 18, 1-(8-fluoro-2-phenylimidazo[1,2-a]pyridin-3-yl)-3-((3S,4R)-1-(2-methoxyethyl)-4-phenylpyrrolidin-3-yl)urea]	< 100
COCCN1C[C@@H](NC(=O)Nc2c(-c3ccccc3)nc3scnn23)[C@H](c2ccccc2)C1 (relative stereo) [Example 8, 1-((trans)-1-(2-methoxyethyl)-4-phenylpyrrolidin-3-yl)-3-(6-phenylimidazo[2,1-b][1,3,4]thiadiazol-5-yl)urea]	< 100
COCCN1C[C@@H](NC(=O)Nc2c(-c3ccccc3)nc3cc(C)ccn23)[C@H](c2ccccc2)C1 (relative stereo) [Example 12, 1-((trans)-1-(2-methoxyethyl)-4-phenylpyrrolidin-3-yl)-3-(7-methyl-2-phenylimidazo[1,2-a]pyridin-3-yl)urea]	< 100
COCCN1C[C@@H](NC(=O)Nc2c(-c3ccccc3)nc3ccc(F)cn23)[C@H](c2ccccc2)C1 (relative stereo) [Example 17, 1-(6-fluoro-2-phenylimidazo[1,2-a]pyridin-3-yl)-3-((trans)-1-(2-methoxyethyl)-4-phenylpyrrolidin-3-yl)urea]	< 100
COCCN1C[C@@H](NC(=O)Nc2c(-c3ccccc3)nc3ncccn23)[C@H](c2ccccc2)C1 (relative stereo) [Example 7, 1-((trans)-1-(2-methoxyethyl)-4-phenylpyrrolidin-3-yl)-3-(2-phenylimidazo[1,2-a]pyrimidin-3-yl)urea]	< 100
COCCN1C[C@@H](NC(=O)Nc2c(-c3ccccc3)nc3c(=O)[nH]ccn23)[C@H](c2ccc(F)c(F)c2)C1 [Example 21, 1-((3S,4R)-4-(3,4-difluorophenyl)-1-(2-methoxyethyl)pyrrolidin-3-yl)-3-(8-oxo-2-phenyl-7,8-dihydroimidazo[1,2-a]pyrazin-3-yl)urea]	< 100
COCCN1C[C@@H](NC(=O)Nc2cccc3c(Br)n[nH]c23)[C@H](c2ccccc2)C1 (relative stereo) [Example 3, 1-(3-bromo-1H-indazol-7-yl)-3-(trans-1-(2-methoxyethyl)-4-phenylpyrrolidin-3-yl)urea]	< 100
COCCN1C[C@@H](NC(=O)Nc2c(-c3ccccc3)nc3c(C)cccn23)[C@H](c2ccccc2)C1 [Example 15, 1-((3S,4R)-1-(2-methoxyethyl)-4-phenylpyrrolidin-3-yl)-3-(8-methyl-2-phenylimidazo[1,2-a]pyridin-3-yl)urea]	< 100
COCCN1C[C@@H](NC(=O)Nc2c(-c3ccccc3)nc3sccn23)[C@H](c2ccccc2)C1 (relative stereo) [Example 9, 1-((trans)-1-(2-methoxyethyl)-4-phenylpyrrolidin-3-yl)-3-(6-phenylimidazo[2,1-b]thiazol-5-yl)urea]	< 100
COCCN1C[C@@H](NC(=O)NC2=C(c3ccccc3)C(=O)c3ccccc32)[C@H](c2ccc(F)c(F)c2)C1 [Example 28, 1-((3S,4R)-4-(3,4-difluorophenyl)-1-(2-methoxyethyl)pyrrolidin-3-yl)-3-(1-oxo-2-phenyl-1H-inden-3-yl)urea]	100 to 1000
COCCN1C[C@@H](NC(=O)Nc2c(-c3ccccc3)nc3sc(C)cn23)[C@H](c2ccccc2)C1 (relative stereo) [Example 5, 1-((trans)-1-(2-methoxyethyl)-4-phenylpyrrolidin-3-yl)-3-(2-methyl-6-phenylimidazo[2,1-b]thiazol-5-yl)urea]	100 to 1000
COCCN1C[C@@H](NC(=O)Nc2c(-c3ccccc3)[nH]c3ccccc23)[C@H](c2ccccc2)C1 (relative stereo) [Example 26, 1-((trans)-1-(2-methoxyethyl)-4-phenylpyrrolidin-3-yl)-3-(2-phenyl-1H-indol-3-yl)urea]	< 100

Other lines, results leading:

IC50 [nM]	Structure (SMILES)
< 100	COCCN1C[C@@H](NC(=O)Nc2c(-c3ccccc3)nc3c(C)nccn23)[C@H](c2ccccc2)C1 [Example 19, 1-((3S,4R)-1-(2-methoxyethyl)-4-phenylpyrrolidin-3-yl)-3-(8-methyl-2-phenylimidazo[1,2-a]pyrazin-3-yl)urea]
< 100	COCCN1C[C@@H](NC(=O)Nc2c(-c3ccccc3)nc3c(C)nccn23)[C@H](c2cc(F)cc(F)c2)C1 [Example 23, 1-((3S,4R)-4-(3,5-difluorophenyl)-1-(2-methoxyethyl)pyrrolidin-3-yl)-3-(8-methyl-2-phenylimidazo[1,2-a]pyrazin-3-yl)urea]
< 100	COCCN1C[C@@H](NC(=O)Nc2c(-c3ccccc3)nc3c(C)cccn23)[C@H](c2ccccc2)C1 (relative stereo) [Example 11, 1-((trans)-1-(2-methoxyethyl)-4-phenylpyrrolidin-3-yl)-3-(8-methyl-2-phenylimidazo[1,2-a]pyridin-3-yl)urea]
100 to 1000	COCCN1C[C@@H](NC(=O)Nc2c(-c3ccccc3)nc3ccc(C)cn23)[C@H](c2ccccc2)C1 (relative stereo) [Example 13, 1-((trans)-1-(2-methoxyethyl)-4-phenylpyrrolidin-3-yl)-3-(6-methyl-2-phenylimidazo[1,2-a]pyridin-3-yl)urea]
100 to 1000	COCCN1C[C@@H](NC(=O)Nc2ccc(C)c3cn[nH]c23)[C@H](c2ccccc2)C1 (relative stereo) [Example 2, 1-(trans-1-(2-methoxyethyl)-4-phenylpyrrolidin-3-yl)-3-(4-methyl-1H-indazol-7-yl)urea di-trifluoroacetate]
< 100	COCCN1C[C@@H](NC(=O)Nc2c(-c3ccccc3)nc3ccccn23)[C@H](c2ccccc2)C1 (relative stereo) [Example 6, 1-((trans)-1-(2-methoxyethyl)-4-phenylpyrrolidin-3-yl)-3-(2-phenylimidazo[1,2-a]pyridin-3-yl)urea]
100 to 1000	COCCN1C[C@@H](NC(=O)Nc2cccc3cn[nH]c23)[C@H](c2ccccc2)C1 (relative stereo) [Example 1, 1-(1H-indazol-7-yl)-3-(trans-1-(2-methoxyethyl)-4-phenylpyrrolidin-3-yl)urea di-trifluoroacetate]
< 100	COCCN1C[C@@H](NC(=O)Nc2c(-c3ccccc3)nc3c(C)nccn23)[C@H](c2ccc(F)cc2)C1 [Example 27, 1-((3S,4R)-4-(4-fluorophenyl)-1-(2-methoxyethyl)pyrrolidin-3-yl)-3-(8-methyl-2-phenylimidazo[1,2-a]pyrazin-3-yl)urea]
< 100	CCn1ccn2c(NC(=O)N[C@@H]3CN(CCOC)C[C@H]3c3ccc(F)c(F)c3)c(-c3ccccc3)nc2c1=O [Example 25, 1-((3S,4R)-4-(3,4-difluorophenyl)-1-(2-methoxyethyl)pyrrolidin-3-yl)-3-(7-ethyl-8-oxo-2-phenyl-7,8-dihydroimidazo[1,2-a]pyrazin-3-yl)urea]
< 100	COCCN1C[C@@H](NC(=O)Nc2c(-c3ccccc3)nc3c(C(F)(F)F)cccn23)[C@H](c2ccccc2)C1 (relative stereo) [Example 16, 1-((trans)-1-(2-methoxyethyl)-4-phenylpyrrolidin-3-yl)-3-(2-phenyl-8-(trifluoromethyl)imidazo [1,2-a]pyridin-3-yl)urea]
< 100	COCCN1C[C@@H](NC(=O)Nc2c(-c3ccccc3)nc3c(OC)nccn23)[C@H](c2ccc(F)c(F)c2)C1 [Example 22, 1-((3S,4R)-4-(3,4-difluorophenyl)-1-(2-methoxyethyl)pyrrolidin-3-yl)-3-(8-methoxy-2-phenylimidazo[1,2-a]pyrazin-3-yl)urea]
< 100	COCCN1C[C@@H](NC(=O)Nc2cccc3c(-c4ccccc4)n[nH]c23)[C@H](c2ccccc2)C1 (relative stereo) [Example 4, 1-(trans-1-(2-methoxyethyl)-4-phenylpyrrolidin-3-yl)-3-(3-phenyl-1H-indazol-7-yl)urea]
< 100	COCCN1C[C@@H](NC(=O)Nc2c(-c3ccccc3)nc3cnccn23)[C@H](c2ccccc2)C1 (relative stereo) [Example 10, 1-((trans)-1-(2-methoxyethyl)-4-phenylpyrrolidin-3-yl)-3-(2-phenylimidazo[1,2-a]pyrazin-3-yl)urea]
